Data on 4 compounds can be found in patent US6710041B2, “Pyrrolo[2,1-B][3,1] benzothiazepines and their use for the preparation of medicaments with antipsychotic activity” (Sigma-Tau Industrie Farmaceutiche Riunite S.p.A., priority 2003, dated 2004).

A word on the Ki: it is the equilibrium dissociation constant of an inhibitor or competing ligand from its target.

In one data set the test system is Wistar male rats. The data set is described as follows: Evaluation of catalepsy (bar test). It counts as in vivo, rat. How it is done:
The test was performed on Wistar male rats (N=7 animals); catalepsy was evaluated by means of a metal bar measuring 0.6 cm in diameter positioned at a distance of 10 cm from the work surface. The substance studied, in the form of maleic acid salt (ST1699), was administered subcutaneously 30 minutes prior to the evaluation. The subsequent evaluation times were 60, 90, 120, 180, 240, and 300 minutes after administration.
By means of the test used for evaluating catalepsy in the rat, ST1699 affinity for the D2 receptor subtype of the nigrostriatal dopaminergic system was verified.
Table 4 gives the percentages of animals presenting catalepsy at the various different times after administration of subacute doses of the study compound.

A further data set has as its target T1, H1 histamine receptor (Rattus norvegicus, UniProt P31390).
T1 construct: from tissue; host or cells: rat cortex membranes
The data set is described as follows: Interaction with H1 receptors, [3H]-pyrilamine binding, rat cortex membranes. The following applies: Table 1; mean and standard deviation; read-out: H1 Ki ± ds.

A further data set concerns 5-HT2 versus D2 receptor. The data set is described as follows: Classification of typical and atypical antipsychotics by 5-HT2 versus D2 pKi ratio and Log Y score. The following applies: for LogY: Log Y score smaller than 6.48 = atypical profile.

T1 sequence (P31390 whole entry): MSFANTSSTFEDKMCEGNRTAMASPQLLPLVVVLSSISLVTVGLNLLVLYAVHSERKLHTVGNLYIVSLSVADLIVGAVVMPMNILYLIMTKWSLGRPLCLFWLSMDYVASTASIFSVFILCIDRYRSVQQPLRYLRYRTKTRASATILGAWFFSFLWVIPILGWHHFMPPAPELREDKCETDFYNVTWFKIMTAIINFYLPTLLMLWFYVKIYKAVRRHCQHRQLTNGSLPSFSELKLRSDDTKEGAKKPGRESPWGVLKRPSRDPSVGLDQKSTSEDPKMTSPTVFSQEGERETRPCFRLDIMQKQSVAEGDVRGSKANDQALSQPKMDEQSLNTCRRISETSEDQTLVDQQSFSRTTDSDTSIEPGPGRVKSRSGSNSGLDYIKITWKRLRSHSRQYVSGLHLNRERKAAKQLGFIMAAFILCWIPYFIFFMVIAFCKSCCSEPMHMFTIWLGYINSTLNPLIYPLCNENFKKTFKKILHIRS
Experimental for H1 histamine receptor: Interaction with H1 Receptors
Aspecific binding was determined in the presence of 100 μM of pyrilamine.

Regarding `O=C(CCCN1CCC(O)(c2ccc(Cl)cc2)CC1)c1ccc(F)cc1` [Haloperidol, haloperidol, reference compound], the “percentage of animals presenting catalepsy” value (shortened to “percentage”) in the data set with Wistar male rats (0.2 mg/kg, 30 min after administration) is on record as 0%; with Wistar male rats (0.2 mg/kg, 60 min after administration), 70%; in the data set with Wistar male rats (0.2 mg/kg, 90 min after administration), 100%; in the data set with Wistar male rats (0.2 mg/kg, 120 min after administration), 100%; with Wistar male rats (0.2 mg/kg, 180 min after administration) it was 100%.
For `CN1CCN(C2=Cn3cccc3Sc3ccc(Cl)cc32)CC1` [ST1508, 7-chloro-9-(4-methyl-1-piperazinyl)pyrrolo[2,1-b][1,3]benzothiazepine], at H1 histamine receptor, the Ki was 2.7 ± 0.02 nM. Moreover, the LogY with 5-HT2 versus D2 receptor amounted to 8.20.
With `CN1CCN(C2=Cn3cccc3Sc3ccc(Cl)cc32)CC1` [ST1699, 7-chloro-9-(4-methyl-1-piperazinyl)pyrrolo[2,1-b][1,3]benzothiazepine], the “percentage” value in the data set with Wistar male rats (0.3 mg/kg subcutaneously, 30 min after administration) is 0%; in the data set on Wistar male rats (0.3 mg/kg subcutaneously, 60 min after administration) it was 0%; with Wistar male rats (0.3 mg/kg subcutaneously, 90 min after administration) it was 17%; in the data set on Wistar male rats (0.3 mg/kg subcutaneously, 120 min after administration) it was 17%; in the data set with Wistar male rats (0.3 mg/kg subcutaneously, 180 min after administration) it was 33%; with Wistar male rats (0.6 mg/kg subcutaneously, 30 min after administration), 33%. In addition, the “percentage” value in the data set on Wistar male rats (0.6 mg/kg subcutaneously, 60 min after administration) stood at 66%; with Wistar male rats (0.6 mg/kg subcutaneously, 90 min after administration), 83%; in the data set with Wistar male rats (0.6 mg/kg subcutaneously, 120 min after administration), 100%; in the data set on Wistar male rats (0.6 mg/kg subcutaneously, 180 min after administration), 100%. In addition, in the data set with Wistar male rats (in words, highest dose among those used (0.6 mg/kg), effects comparable to 0.2 mg/kg of haloperidol), the occurrence of catalepsy result is given as “induced the occurrence of catalepsy”.
On to `Cc1ccc2n1C=C(N1CCN(C)CC1)c1ccccc1S2` [ST2092, 1-Methyl-9-(4-methylpiperazin-1-yl)pyrrolo[2,1-b][1,3]benzothiazepine], for which the LogY in the data set with 5-HT2 versus D2 receptor worked out at 3.19. Also, the “binding affinity at 5 HT2 receptor compared with D2 dopamine receptor” value in the data set with 5-HT2 versus D2 receptor (in words) is reported as “greater than D2 dopamine receptor”.
